Reference: US20250092065A1, “2-(INDAZOL-5-YL)-6-(PIPERIDIN-4-YL)-1,7-NAPHTHYRIDINE DERIVATIVES AND RELATED COMPOUNDS AS MODULATORS FOR SPLICING NUCLEIC ACIDS AND FOR THE TREATMENT OF PROLIFERATIVE DISEASES” (REMIX THERAPEUTICS INC., priority 2022, published 2025)
pIC50: −log10 of the molar value. Counter-ions that a name gives are not always drawn. Like-named read-outs stand apart in the source and are kept apart here.

How the values were obtained:
MYB mRNA = experiment: RT-qPCR splicing assay, MYB mRNA canonical (CJ) and alternative (AJ) junction; assay type: cell-based, human; conditions: Homo sapiens; for AC50: MYB alternative junction mRNA, read-out: MYB AJ (increase in AJ mRNA, AC50)
Summary of the method: (§1)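 A673 or K562 cells treated 24 h at 37 °C with an 11-point 3-fold dilution series (top 10 uM, DMSO ≤0.25%). Lysates went directly to one-step RT-qPCR quantifying canonical (CJ) and alternative-exon (AJ) junctions, normalized to GAPDH, GUSB or PPIA. Values from ΔΔCt versus DMSO, RQ = 2^(−ΔΔCt), expressed as percentage response.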

SMN2 mRNA = experiment: RT-qPCR splicing assay, SMN2 mRNA; assay type: cell-based, human; conditions: Homo sapiens, canonical junction qPCR panel, Table 4; read-out: SMN2 IC50 (decrease in CJ mRNA levels)
Summary of the method: as §1

K562 cells = experiment: Cell Titer Glo 2.0 cell viability (toxicity) assay, K562; conditions: 500 cells/well, 72 hours
MYB = experiment: HiBiT protein abundance assay, MYB (K562 HiBiT knock-in); assay type: cell-based, human; conditions: HiBiT knock-in K562 cells, 24 hours, top dose 10 μM
Summary of the method: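 K562 HiBiT knock-in, 24 h, 37 °C, top 10 μM final, 3-fold ×10, DMSO ≤0.25%. Lytic HiBiT luminescence; PC = parental K562, NC = DMSO; 4PL IC50.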

[1] = MYB canonical junction mRNA, RT-qPCR, read-out: MYB CJ (decrease in CJ mRNA levels, IC50)
[2] = canonical junction qPCR panel, Table 4, read-out: MYB IC50 (decrease in CJ mRNA levels)

| SMILES | AC50 (MYB mRNA; RT-qPCR) [nM] | pIC50 (MYB mRNA; [1]) | pIC50 (MYB mRNA; [2]) | pIC50 (SMN2 mRNA) | Effect of Exemplary Compounds on Cell Viability, K562 (K562 cells) | pIC50 (MYB) |
| --- | --- | --- | --- | --- | --- | --- |
| CNC(=O)c1nc(-c2cc3cn(C)nc3c(C)c2O)nc2ccc(N3CC[C@H](NC)C3)cc12 [Compound 537, 2-(6-hydroxy-2,7-dimethylindazol-5-yl)-N-methyl-6-[(3S)-3-(methylamino)pyrrolidin-1-yl]quinazoline-4-carboxamide] | < 100 | > 7.00 | > 7.00 | > 7.00 | A (A represents <100 nM) | > 7.00 |
| Cc1c(O)c(-c2nc(-c3c[nH]nn3)c3cc(N4CCNCC4)ccc3n2)cc2cn(C)nc12 [Compound 538, 2,7-dimethyl-5-[6-(piperazin-1-yl)-4-(1H-1,2,3-triazol-4-yl)quinazolin-2-yl]indazol-6-ol hydrochloride] | 1000 to 10000 | 5.00 to 6.00 | 5.00 to 6.00 | 6.00 to 7.00 | C (C represents 1000-9999 nM) | 5.00 to 6.00 |
| Cc1c(O)c(-c2nc(C(=O)NC(C)C)c3cc(N4C[C@@H](C)N[C@@H](C)C4)ccc3n2)cc2cn(C)nc12 [Compound 539, 6-[(3R,5S)-3,5-dimethylpiperazin-1-yl]-2-(6-hydroxy-2,7-dimethylindazol-5-yl)-N-isopropylquinazoline-4-carboxamide] | < 100 | > 7.00 | > 7.00 | > 7.00 | A (A represents <100 nM) | > 7.00 |
| Cc1c(O)c(-c2nc(C(=O)NC3CCC3)c3cc(N4C[C@@H](C)N[C@@H](C)C4)ccc3n2)cc2cn(C)nc12 [Compound 540] | < 100 | > 7.00 | > 7.00 | > 7.00 | A (A represents <100 nM) | > 7.00 |
| Cc1c(O)c(-c2nc(-c3nn[nH]n3)c3cc(N4CCNCC4)ccc3n2)cc2cn(C)nc12 [Compound 541, 2,7-dimethyl-5-[6-(piperazin-1-yl)-4-(2H-1,2,3,4-tetrazol-5-yl)quinazolin-2-yl]indazol-6-ol] | 1000 to 10000 | 5.00 to 6.00 | 5.00 to 6.00 | 5.00 to 6.00 | C (C represents 1000-9999 nM) | < 5.00 |
| C[C@@H]1CN(c2ccc3nc(-c4cc5cn(C)nc5c(F)c4O)nc(C4CC4)c3c2)C[C@H](C)N1 [Compound 542, 5-{4-cyclopropyl-6-[(3R,5S)-3,5-dimethylpiperazin-1-yl]quinazolin-2-yl}-7-fluoro-2-methylindazol-6-ol] | < 100 | > 7.00 | > 7.00 | > 7.00 | B (B represents 100-1000 nM) | > 7.00 |
| CN[C@@H]1CCN(c2ccc3nc(-c4cc5cn(C)nc5c(F)c4O)nc(C4CC4)c3c2)C1 [Compound 543, 5-{4-cyclopropyl-6-[(3R)-3-(methylamino)pyrrolidin-1-yl]quinazolin-2-yl}-7-fluoro-2-methylindazol-6-ol] | < 100 | > 7.00 | > 7.00 | > 7.00 | A (A represents <100 nM) | > 7.00 |
| Cc1cn2cc(-c3ccc4cc(N5C[C@@H](C)N[C@@H](C)C5)cc(F)c4n3)cc(F)c2n1 [Compound 544, 6-[(3R,5S)-3,5-dimethylpiperazin-1-yl]-8-fluoro-2-{8-fluoro-2-methylimidazo[1,2-a]pyridin-6-yl}quinoline] | 100 to 1000 | 6.00 to 7.00 | 6.00 to 7.00 | > 7.00 | B (B represents 100-1000 nM) | 6.00 to 7.00 |
| CNC(=O)c1nc(-c2cc3cn(C)nc3c(C)c2O)nc2ccc(N3C[C@H](C)N[C@@H](C)C3)cc12 [Compound 652, 6-[(3S,5S)-3,5-dimethylpiperazin-1-yl]-2-(6-hydroxy-2,7-dimethylindazol-5-yl)-N-methylquinazoline-4-carboxamide] | < 100 | > 7.00 | > 7.00 | > 7.00 | A (A represents <100 nM) | > 7.00 |
| Cc1c(O)c(-c2ncc3cc(N4C[C@H](C)N[C@@H](C)C4)ccc3n2)cc2cn(C)nc12 [Compound 660, 5-{6-[(3S,5S)-3,5-dimethylpiperazin-1-yl]quinazolin-2-yl}-2,7-dimethylindazol-6-ol] | < 100 | > 7.00 | > 7.00 | > 7.00 | A (A represents <100 nM) | > 7.00 |
